Consider nine compounds from ChEMBL document CHEMBL6071139, “Recent discovery of natural substances with cathepsin L-inhibitory activity for cancer metastasis suppression” (Eur J Med Chem, 2024).

Data set [1] addresses T1, Procathepsin L (Homo sapiens, UniProt P07711). As to the kind of experiment: Inhibition of CTSL (unknown origin) using Z-Phe-Arg-AMC as substrate by fluorometric assay.
For data set [2], the target named is T1, Procathepsin L. Nature of the data set: Inhibition of CTSL (unknown origin) using Z-Phe-Arg-AMC as substrate preincubated for 30 mins followed by substrate addition measured after 6 mins by fluorescence based assay.
The target in data set [3] is T1, Procathepsin L. Nature of the data set: Inhibition of CTSL (unknown origin).
The nature of data set [4]: Lipophilicity, logP of compound. The settings on record: octanol/water.

The structures appear in SMILES notation.

T1 sequence (P07711 whole entry): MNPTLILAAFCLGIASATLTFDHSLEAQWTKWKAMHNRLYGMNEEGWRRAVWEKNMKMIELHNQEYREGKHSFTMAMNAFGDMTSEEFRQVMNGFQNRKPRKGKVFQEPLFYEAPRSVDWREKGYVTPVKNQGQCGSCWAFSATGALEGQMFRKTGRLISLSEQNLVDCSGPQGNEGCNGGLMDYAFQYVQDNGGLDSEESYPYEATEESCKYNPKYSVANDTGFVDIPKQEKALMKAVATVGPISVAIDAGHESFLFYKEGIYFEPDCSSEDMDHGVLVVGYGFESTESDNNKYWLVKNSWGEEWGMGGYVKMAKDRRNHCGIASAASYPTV

The IC50 is the concentration that gives 50% inhibition. Higher therefore signals a need for much substance. The compound `O=C(O)/C=C/c1ccc(O)cc1O` gave a 50% inhibitory concentration (IC50) on Procathepsin L [1] of 930 µM.

For `Cc1ccc(S(=O)(=O)N[C@@H](Cc2ccccc2)C(=O)OC[C@H](Cc2ccccc2)NC(=O)c2ccccc2)cc1`, 30.2 µM corresponded to half-maximal inhibition against Procathepsin L [2] (IC50). The term Ki denotes the equilibrium dissociation constant of an inhibitor or competing ligand from its target. A higher Ki goes with lower affinity. With `CCOC(=O)/C=C/C(=O)[C@H](CC(C)C)NC(=O)[C@H](Cc1ccccc1)NC(=O)OCc1ccccc1`, the Ki on Procathepsin L [3] was 0.012 µM. In the case of `O=C(N[C@H](COC(=O)[C@H](Cc1ccccc1)NS(=O)(=O)c1cccc(Br)c1)Cc1ccccc1)c1ccccc1`, the IC50 against Procathepsin L [3] worked out at 5.8 µM. `Cc1ccc(S(=O)(=O)/C=C/C(=O)[C@H](CC(C)C)NC(=O)[C@H](CC(C)C)NC(=O)OCc2ccccc2)cc1` returned a Ki at Procathepsin L [3] of 0.0085 µM. As a reminder, the logP is the decadic logarithm of the partition coefficient of the neutral form, usually between octanol and water. Consider `C[C@@H](/C=C/[N+](=O)[O-])NC(=O)[C@H](Cc1c[nH]c2ccccc12)NC(=O)OCc1ccccc1`, for which the Ki at Procathepsin L [3] stood at 0.0011 µM. The compound also displayed a logP in data set [4] of 1.61. At Procathepsin L [3], `O=C(N[C@@H](Cc1ccccc1)C(=O)OC[C@H](Cc1ccccc1)NS(=O)(=O)c1ccc(Br)cc1)c1ccccc1` registered an IC50 of 6 µM. At Procathepsin L [3], `C[C@@H](/C=C/[N+](=O)[O-])NC(=O)[C@H](Cc1ccc([N+](=O)[O-])cc1)NC(=O)OCc1ccccc1` had a Ki of 0.0039 µM. In addition, in data set [4], the logP is 1.85.

The compound `O=C(N[C@H](COC(=O)[C@H](Cc1ccccc1)NC(=O)c1ccccc1)Cc1ccccc1)c1ccccc1` [ASPERPHENAMATE] returned an IC50 against Procathepsin L [3] of 91.2 µM.
